In test [1] the target is T1, equine butyrylcholinesterase (eqBChE) (Equus caballus, UniProt P81908).
T1 construct: purchased Sigma-Aldrich (Steinheim, Germany)
Nature of the test: BChE inhibition, adapted Ellman method. The test is classed as biochemical. The note with it: for SI (selectivity index): IC50 (AChE)/IC50 (BChE); for IC50: eqBChE, mean of two independent experiments ± SD, read-out: BChE Inhib IC50. As for the experimental part:
The enzyme inhibition of electric eel acetylcholinesterase (eeAChE) and equine butyrylcholinesterase (eqBChE) by our compounds was evaluated through an adaptation of Elmman´s method using reagents from Sigma-Aldrich (Steinheim, Germany). Stock solutions of each compound (1 mg) in MeOH (1 mL) were prepared and then working solutions for each ligand were obtained by the corresponding dilution of the stock solutions. A control measurement with 5 replicates (without ligand) and a calibration curve of 5 points with 3 replicates per point was performed. The preparation of each solution involved fixed volumes of 4-(2-hydroxyethyl)-1-piperazine-ethanesulfonic acid (HEPES) and cholinesterase (eeAChE or eqBChE) with different volumes of ligand solution, and it was left to rest for 15 min immediately after adding the cholinesterase. A blank solution containing HEPES and MeOH was also prepared at the same time. […] The slope for each calibration point (absorbance versus reaction time) was determined and the inhibition for each compound was calculated by using the following equation: %Inhibition=100−(vi/v0×100) where vi is the reaction rate (slope) for each point of the calibrate with ligand and v0 is the initial reaction rate (slope) for the control point (without ligand). […] Experiments were performed twice for each compound.

For another test, the system named is SH-SY5Y cells. The experiment in a line: Neuroprotection against Aβ1-42-induced toxicity, MTT. The test is classed as cell-based, human. The conditions noted are these: Aβ1-42 1 µM, 24 h, optimized concentration of each compound. On the procedure:
Cell viability, following treatment with the compounds, was determined using the colorimetric MTT (3-(4,5-dimethylthiazol-2-yl)-2,5-diphenyltetrazolium bromide) assay. The tested compounds (5a1-3, 5b1-3, 5c1-3) were dissolved in DMSO to produce stock solutions of 25 mM and stored at −20 °C. A concentration screening was performed for 0.5 µM to 20 µM final concentrations to choose the highest nontoxic concentration. SH-SY5Y human neuroblastoma cell line (ATCC-CRL-2266) was cultured in Dulbecco’s modified Eagle’s medium (DMEM) (Gibco-Invitrogen, Life Technologies Ltd., Waltham, MA, USA) with heat-inactivated fetal calf serum (10%), penicillin (50 U/mL) and streptomycin (50 µg/mL) at 37 °C with 5% CO2. Cells were plated at 0.15 × 10^6 cells/mL one day prior to the start of the experiment. The cells were then incubated with the appropriate concentration of the compounds for 24 h. After the incubation period, the cells were washed once with PBS and incubated with 200 µL MTT (0.5 mg/mL) for 2 h at 37 °C with 5% CO2. During this period, cellular dehydrogenase successfully metabolized MTT into formazan, which was then solubilized using 200 µL of 0.04 M HCl/isopropanol. Absorbance was measured at 570 nm.
To test whether the compounds have a protective effect against toxicity induced by Aβ1-42 or iron/ascorbate, the cells were pre-incubated for 1 h with each compound, followed by the addition of Aβ1-42 or iron/ascorbate and incubation for an additional 24 h. Aβ1-42 (Bachem, Torrance, CA, USA) was prepared in sterile water to produce a stock solution of 443 µM and added to the cells at a final concentration of 1 µM. Ferrous sulfate and L-ascorbic acid (Sigma Chemical Co, St. Louis, MO, USA), prepared in sterile water, were added to the medium together at a final concentration of 5 mM and 2.5 mM, respectively. For this assay, the optimal concentration of each compound was used to prevent cellular demise induced by Aβ1-42 or iron/ascorbate. Compound 5a1 was added to the medium at a 1 µM final concentration; compounds 5a2, 5a3, 5b1, 5b2 and 5c2 were added to the medium at a 2.5 µM final concentration; compounds 5c1 and 5c3 were added to the medium at a 5 µM final concentration; and compound 5b3 was added to the medium at a 10 µM final concentration. […] Controls were employed for each plate using untreated cells and Aβ1-42 or iron/ascorbate only. Cell reduction ability was normalized to the untreated condition. All data are expressed as mean ± SEM of at least three independent experiments performed in duplicate. Statistical analyses were performed for normality assessment using Shapiro–Wilk’s test followed by the Kruskal–Wallis test considering that normality was not verified. Post hoc analysis was performed using uncorrected Dunn’s test. A p value < 0.05 was considered statistically significant.
Figure 4 Neuroprotective effect of RIV-IND compounds against cellular toxicity induced by Aβ1-42 measured by MTT reduction ability on SH-SY5Y cells pretreated with […] for one hour, followed by a 24 h incubation with the optimized concentration of each compound. Results are expressed relatively to untreated cells, with the mean ± standard error of the mean (SEM) derived from three to seven independent experiments. * p < 0.05; ** p < 0.01; *** p < 0.001; **** p < 0.0001 compared to untreated cells. # p < 0.05 compared to Aβ1-42-treated cells. (The dot line indicates the decrease in cellular viability induced by Aβ).

Test [2] is described as follows: DPPH free radical scavenging (antioxidant) assay. The conditions noted are these: read-out: Antioxidant Activity EC50; DPPH method, mean of three independent experiments. Background: The DPPH test is a chemical assay of radical scavenging.
Procedure: The radical scavenging activity (antioxidant capacity) of the herein-developed RIV-IND hybrids was determined by the DPPH method [33]. Working solutions of the compounds in 10% DMSO/MeOH (, HoneywellSeelze, Germany) medium were used to prepare 5 methanolic solutions (5 points, 3 replicates) containing DPPH (Sigma-Aldrich, Steinheim, Germany) and different concentrations of compound up to 3.5 mL total volume. […] The respective antioxidant activity (%AA) was calculated using the following equation: %AA=ADPPH−Aligand/ADPPH×100
The reported results were obtained as the mean values of three independent experiments.
The new RIV-IND compounds were also screened for their radical scavenging activity (EC50), according to the 2,2-diphenyl-1-picrylhydrazyl (DPPH) free radical method.

T1 sequence (P81908 whole entry): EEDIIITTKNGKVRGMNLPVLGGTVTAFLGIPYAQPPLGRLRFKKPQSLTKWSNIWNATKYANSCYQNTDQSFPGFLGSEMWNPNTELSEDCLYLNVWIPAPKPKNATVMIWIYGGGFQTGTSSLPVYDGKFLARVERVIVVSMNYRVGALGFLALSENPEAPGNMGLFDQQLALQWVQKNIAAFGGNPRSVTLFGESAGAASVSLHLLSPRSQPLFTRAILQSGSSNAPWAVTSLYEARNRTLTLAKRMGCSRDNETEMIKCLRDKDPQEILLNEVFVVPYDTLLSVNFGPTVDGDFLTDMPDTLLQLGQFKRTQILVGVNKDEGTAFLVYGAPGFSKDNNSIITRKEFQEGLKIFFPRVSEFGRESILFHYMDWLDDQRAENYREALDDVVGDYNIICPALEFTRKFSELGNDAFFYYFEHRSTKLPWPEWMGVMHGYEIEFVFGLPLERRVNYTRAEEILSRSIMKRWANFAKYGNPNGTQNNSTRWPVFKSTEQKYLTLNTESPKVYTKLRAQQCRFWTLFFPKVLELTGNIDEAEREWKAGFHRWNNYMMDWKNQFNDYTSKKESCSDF

For the compound `CCN(C)C(=O)Oc1cccc(CNC(=O)c2cc3ccccc3[nH]2)c1` [Compound 5b1, 3-((1H-indole-2-carboxamido)methyl)phenyl ethylmethylcarbamate], in test [1], the “SI (selectivity index)” value amounted to 9.4 and the IC50 amounted to 8.3 ± 0.1 µM. Besides, in the test on SH-SY5Y cells, the “neuroprotective effect against toxicity induced by Aβ1-42” value was “able to rescue Aβ1-42-induced toxicity to levels that were not significantly different from untreated cells”. In test [2], the EC50 was greater than 2000 µM.

As for `CCN(C)C(=O)Oc1cccc(NC(=O)c2cc3cccc(O)c3[nH]2)c1` [Compound 5a3, 3-(7-Hydroxy-1H-indole-2-carboxamido)phenyl ethyl(methyl)carbamate], in test [1], the “SI (selectivity index)” value was 1.05 and the IC50 worked out at 10.4 ± 0.4 µM. Besides, the “neuroprotective effect against toxicity induced by Aβ1-42” value in the test with SH-SY5Y cells is “also present neuroprotection”. In addition, the EC50 in test [2] was 14.5 ± 0.5 µM.

A word on the IC50: it is the concentration that gives 50% inhibition. A word on the EC50: it is the concentration giving half of the maximal effect.

Values taken from PMC10892719 (Pharmaceutics, 2024).
